Data: patent publication US20080249042A1, “All-Trans-Retinol: All-Trans-13,14-Dihydroretinol Saturase and Methods of Its Use” (UNIVERSITY OF WASHINGTON, priority 2004, published 2008)

Columns and labels:
RAR/RXR heterodimers = assay: F9-RARE-lacZ DR5 RARE reporter cell assay; conditions: linear part of the dose-response curve
Experimental: RARE and RXRE Activation Assay. […] The RA-responsive F9 cell line was transfected with a reporter construct of an RARE derived from the human retinoic acid receptor-β gene (RAR-β) placed upstream of the Escherichia coli lacZ gene. […] Cells were grown in L15-CO2 media containing N-3 supplements and antibiotics. […] After 24 h, cells were split into 24-well plates to ensure an equal number of transfected cells in each assay well. Cells were stimulated with appropriate concentrations of all-trans-RA, 9-cis-RA, or all-trans-DRA. After 48 h, the expression of β-galactosidase was assayed as described above.

mouse RetSat [1] = molecular target: T1, mouse RetSat (Mus musculus, UniProt Q64FW2); conditions: earlier report, Moise et al. 2004; cited from earlier work
T1 construct: expressed in transfected cells
T1 sequence (Q64FW2 26-609): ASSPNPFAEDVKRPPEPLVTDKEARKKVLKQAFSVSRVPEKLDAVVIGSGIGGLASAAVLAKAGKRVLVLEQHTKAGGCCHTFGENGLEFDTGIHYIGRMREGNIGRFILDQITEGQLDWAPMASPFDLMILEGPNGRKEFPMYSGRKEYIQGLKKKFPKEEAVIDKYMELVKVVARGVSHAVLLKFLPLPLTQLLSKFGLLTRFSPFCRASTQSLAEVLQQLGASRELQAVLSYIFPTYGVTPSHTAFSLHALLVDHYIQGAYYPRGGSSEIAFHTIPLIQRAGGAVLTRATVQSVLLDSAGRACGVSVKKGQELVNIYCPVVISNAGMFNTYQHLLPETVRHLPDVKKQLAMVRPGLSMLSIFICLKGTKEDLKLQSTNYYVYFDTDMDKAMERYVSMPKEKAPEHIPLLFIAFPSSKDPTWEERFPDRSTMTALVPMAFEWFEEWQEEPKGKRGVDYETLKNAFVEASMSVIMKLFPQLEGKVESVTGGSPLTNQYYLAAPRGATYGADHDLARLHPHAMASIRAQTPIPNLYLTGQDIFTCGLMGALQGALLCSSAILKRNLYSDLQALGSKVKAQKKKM

mouse RetSat [2] = molecular target: T1, mouse RetSat; assay: Saturase activity in homogenized HEKK-RetSat cells; assay type: biochemical; conditions: membrane homogenate, 40 μM substrate, 1 hr
Experimental: Enzymatic assays for saturase activity in homogenized cells. Cells were homogenized with 15 mM Tris-HCl, pH 8.0, containing 10 mM dithiothreitol and 0.32 M sucrose. One aliquot of cells was boiled for 10 min at 95° C. as a negative control. Cell aliquots of 200 μl were supplemented with 1 mM ATP and 40 μM all-trans-retinol final concentrations. Some aliquots were also supplemented with 0.4 mM NADH or 0.4 mM NADPH to regenerate the redox state of the reaction. The cell homogenate was incubated with retinol substrate with shaking at 37° C. for 1 hr in the dark. This was followed by the extraction of retinoids with one volume of methanol and two volumes of hexane. The organic phase was dried and resuspended in hexane and then examined by normal-phase HPLC.

tomato CRTISO = molecular target: T2, tomato CRTISO (Solanum lycopersicum, UniProt Q8S4R4); assay: CRTISO activity in transfected HEKK cells; assay type: cell-based; conditions: CRTISO-expressing cells, overnight, in the dark
T2 construct: expressed in transfected cells
T2 sequence (Q8S4R4 with tags, fused parts or gaps): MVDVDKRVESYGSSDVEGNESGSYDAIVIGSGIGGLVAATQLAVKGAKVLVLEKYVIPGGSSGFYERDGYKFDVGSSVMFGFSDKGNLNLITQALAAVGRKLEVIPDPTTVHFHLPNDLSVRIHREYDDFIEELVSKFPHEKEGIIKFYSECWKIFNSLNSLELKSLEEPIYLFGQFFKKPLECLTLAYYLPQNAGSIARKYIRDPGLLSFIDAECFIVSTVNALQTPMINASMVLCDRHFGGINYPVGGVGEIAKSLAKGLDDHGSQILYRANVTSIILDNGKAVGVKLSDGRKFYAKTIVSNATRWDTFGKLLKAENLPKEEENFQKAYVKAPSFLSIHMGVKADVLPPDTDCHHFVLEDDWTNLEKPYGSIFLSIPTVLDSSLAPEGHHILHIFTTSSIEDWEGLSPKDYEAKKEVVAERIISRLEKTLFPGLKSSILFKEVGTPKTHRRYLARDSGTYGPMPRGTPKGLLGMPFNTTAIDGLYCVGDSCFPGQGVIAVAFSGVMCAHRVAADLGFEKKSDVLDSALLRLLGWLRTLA
Experimental: 7Z,9Z,9′Z,7′Z-Tetra-cis-tycopene purification and reverse-phase HPLC analysis of carotenoids. Carotenoid extraction and analysis were performed under dim red light. One gram from the fruit of a tangerine tomato was freeze-thawed three times and extracted with 2 ml PBS, 2 ml of ethanol, and 6 ml of hexane with the aid of a douncer. The organic phase was dried and resuspended in ethanol/tetrahydrofuran (9:1), and examined by reverse-phase HPLC System I (Prontosil, 200-3-C30, 3 μm, 4.6 mm×250 mm, Bischoff Chromatography, Leonberg, Germany) with a mobile phase of 75% tert-butyl methyl ether/25% methanol and a flow rate of 1 ml/min. More than 90% of the extract consisted of 7Z,9Z,9′Z,7′Z-tetra-cis-lycopene identified based on its published UV/VIS absorption spectrum in hexane with the following characteristics: shoulder at λ=417 nm, ε=90,000 M^−1cm^−1, λmax=437 nm, ε=105,000 M−1 cm^−1, shoulder at λ=461 nm ε=70,000 M^−1cm^−1. Bradford, Anal Biochem 72:248-254, 1976.
Enzyme assays of RetSat and CRTISO-catalyzed reactions. For enzyme assay, cells were seeded in six-well plates and expression of RetSat or CRTISO was induced with 1 μg/ml tetracycline 48 hr prior to analysis. […] For retinol and dihydroretinol analysis the methanol:water mixture was extracted with two volumes of hexane, then the organic phase was dried, resuspended in hexane, and analyzed by normal-phase HPLC. […]

## CC1=C(/C=C/C(C)=C/C=C/C(C)CC(=O)O)C(C)(C)CCC1 (stereo not drawn) [all-trans-DRA, all-trans-13,14-dihydroretinoic acid]
RAR/RXR heterodimers
  Fold less effective than all-trans-RA in activating DR5-response elements: about 100 fold

## CC1=C(/C=C/C(C)=C/C=C/C(C)=C/C(=O)O)C(C)(C)CCC1 [all-trans-RA, all-trans-retinoic acid, reference compound]
Mouse RetSat [1]
  Saturation by RetSat: does not saturate

## CC1=C(/C=C/C(C)=C/C=C/C(C)=C/CO)C(C)(C)CCC1 [all-trans-ROL, all-trans-retinol]
Mouse RetSat [2]
  all-trans-13,14-dihydroretinol produced: little
Tomato CRTISO
  Conversion by CRTISO (substrate activity): no saturase activity
